# According to ChEMBL document CHEMBL3286269, “Group A streptococcus inhibitors by high-throughput virtual screening” (2014):
# Tested on: Streptococcus sp. 'group A'
# Assay: Antibacterial activity against group A streptococcus MGAS2221 after 12 hrs by microscopic count analysis
# Assay type: functional
# Conditions: MGAS2221, 12 h
row,SMILES,MIC
1,O=C1NN=CC1CCC/N=C/c1cc(Br)ccc1O (configuration not stated),40 µM
2,Cc1ccc([N+](=O)[O-])c(NC(=O)NC(=O)c2c(Cl)cccc2Cl)c1C,50 µM
3,Oc1c(Cl)cc(Cl)cc1/C=N/CC1CCC(C/N=C/c2cc(Cl)cc(Cl)c2O)CC1 (configuration not stated),10 µM

# Next, values leading:
row,MIC,SMILES
1,20 µM,O=Cc1cc(Cl)cc(Cl)c1O
2,10 µM,O=C1NN=CC1CCC/N=C/c1cc(Cl)cc(Cl)c1O (configuration not stated)
3,20 µM,Oc1c(Cl)cc(Cl)cc1/C=N/CC1CCCO1 (configuration not stated)
4,20 µM,OCC/N=C/c1cc(Cl)cc(Cl)c1O
